Test systems include IGROV1 ovarian; NCI-H460 lung; 786-0 renal; SK-OV-3 ovarian; OVCAR-5 ovarian; M14 melanoma; HCC-2998 colon; CAKI-1 renal; U251 CNS; BT-549 breast.
Assay in all cases: growth of human tumour cells (NCI), 48 h

The values that follow come from PubChem BioAssay (NCI).

SMILES strings stand for the structures.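 All cell lines were grown in 96-well plates and treated with compound for 48 hours. GI50: concentration for 50% inhibition of growth. TGI denotes the concentration required for complete inhibition of growth.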 A value given as a limit tells only on which side of the number the result lay.

Turning to `C#CCNC(=O)NCCCCC(NC(=O)OCc1ccccc1)C(=O)OCc1ccccc1` (stereo not given), the TGI in the experiment on IGROV1 ovarian, in the experiment on NCI-H460 lung, in the experiment on 786-0 renal, with SK-OV-3 ovarian, in the experiment on OVCAR-5 ovarian and in the experiment with M14 melanoma was greater than 100 µM each time. Further, the TGI was greater than 72.5 µM in the experiment with HCC-2998 colon, 97.3 µM with CAKI-1 renal and greater than 100 µM in the experiment with U251 CNS.

For `O=c1cccccc1NCCCCCCCNc1cccccc1=O`, the TGI was greater than 100 µM in the experiment on IGROV1 ovarian; greater than 100 µM in the experiment on NCI-H460 lung; greater than 100 µM in the experiment on 786-0 renal; greater than 100 µM in the experiment with SK-OV-3 ovarian; greater than 100 µM with OVCAR-5 ovarian; 74.6 µM with M14 melanoma. In the experiment with CAKI-1 renal, this compound came in with a TGI greater than 100 µM.

For the compound `COC(=O)C1C(=O)CC2CCCCC21` (stereo not given), the TGI in the experiment on IGROV1 ovarian, with NCI-H460 lung, in the experiment on 786-0 renal, with SK-OV-3 ovarian, in the experiment on M14 melanoma and with HCC-2998 colon was greater than 100 µM each time. The TGI in the experiment on CAKI-1 renal and in the experiment with U251 CNS was greater than 100 µM throughout.

Take `Cl/C(N=Nc1ccccc1)=N/Nc1ccccc1`: the TGI in the experiment on IGROV1 ovarian, in the experiment on NCI-H460 lung, with 786-0 renal, with SK-OV-3 ovarian, with OVCAR-5 ovarian and with HCC-2998 colon was greater than 100 µM in each case. Besides, the TGI in the experiment on CAKI-1 renal and with U251 CNS was greater than 100 µM throughout.

With `CCc1cccc(C)c1N1C(=O)C(=O)C(c2nc3ccccc3o2)C(=O)C1=O`, the TGI in the experiment with IGROV1 ovarian, with NCI-H460 lung, in the experiment with 786-0 renal, with SK-OV-3 ovarian, in the experiment on OVCAR-5 ovarian and with M14 melanoma was greater than 100 µM in each case. The TGI with HCC-2998 colon, in the experiment with CAKI-1 renal and with U251 CNS was greater than 100 µM in each case.

In the case of `O=c1nc(-c2ccccc2)cc(CC(O)c2ccc(Cl)c(Cl)c2)[nH]1` (stereo not given), the TGI in the experiment with IGROV1 ovarian was greater than 100 µM; with NCI-H460 lung, greater than 100 µM; in the experiment with 786-0 renal it was greater than 100 µM; in the experiment with SK-OV-3 ovarian, greater than 100 µM; in the experiment on OVCAR-5 ovarian, 82 µM; with M14 melanoma, greater than 100 µM. The TGI with HCC-2998 colon, in the experiment on CAKI-1 renal and in the experiment with U251 CNS was greater than 100 µM in each case.

On to `COc1ccc(OC(C(=O)O)C(C)C)c2c1CCCC2=O` (stereo not given), for which the TGI in the experiment on IGROV1 ovarian, in the experiment with NCI-H460 lung, in the experiment on 786-0 renal, with SK-OV-3 ovarian, in the experiment with OVCAR-5 ovarian and in the experiment with M14 melanoma was greater than 100 µM each time. Also, the TGI in the experiment on HCC-2998 colon, in the experiment with CAKI-1 renal and in the experiment on U251 CNS was greater than 100 µM throughout.

For `C#CCNC(=O)ON1C(=O)CCC1=O`, the TGI in the experiment with IGROV1 ovarian, in the experiment on NCI-H460 lung, in the experiment with 786-0 renal, with SK-OV-3 ovarian, with OVCAR-5 ovarian and with U251 CNS was greater than 100 µM in each case.

For the compound `C[Si](C)(C)C(CCCCSc1ccccc1)(Sc1ccccc1)Sc1ccccc1`, the TGI in the experiment on NCI-H460 lung, in the experiment with 786-0 renal, in the experiment with SK-OV-3 ovarian, in the experiment on HCC-2998 colon, with CAKI-1 renal and in the experiment with U251 CNS was greater than 100 µM throughout.

Take `CCOC(=O)c1c(C)n(Cc2ccc(Cl)cc2Cl)c2c1cc1oc(=O)c(=O)n3cnc2c13`: the GI50 is 17.8 µM in the experiment with IGROV1 ovarian; 7.78 µM in the experiment with NCI-H460 lung; 18.3 µM in the experiment on 786-0 renal; 23.5 µM in the experiment with SK-OV-3 ovarian; 22.3 µM with M14 melanoma; 17 µM with CAKI-1 renal. Also, the values for the GI50 in the experiment on BT-549 breast and with U251 CNS were 21.6 µM and 14.7 µM, respectively. Further, the TGI with IGROV1 ovarian amounted to 34 µM; with NCI-H460 lung, 20 µM; with 786-0 renal, 34.9 µM; in the experiment on SK-OV-3 ovarian, 38.3 µM; with M14 melanoma, 41.6 µM; in the experiment on CAKI-1 renal it was 32.3 µM. Also, the TGI in the experiment with BT-549 breast was 40.9 µM; in the experiment on U251 CNS, 27.9 µM.

`Cc1ccc(S(=O)(=O)N=NC=C2c3ccccc3N(O)c3ccccc32)cc1`: the TGI came out at 27.1 µM in the experiment on IGROV1 ovarian; 5.99 µM in the experiment with NCI-H460 lung; 7.36 µM in the experiment on 786-0 renal; 27.9 µM in the experiment with SK-OV-3 ovarian; 27.8 µM in the experiment with OVCAR-5 ovarian; 23.2 µM with M14 melanoma. Besides, the TGI is 21.6 µM in the experiment with HCC-2998 colon, 23.8 µM in the experiment on CAKI-1 renal and 13.1 µM in the experiment on U251 CNS.

Consider `CCOC(=O)CN(Cn1cncn1)Cn1cncn1`, for which the TGI was greater than 100 µM in the experiment with IGROV1 ovarian; 57.1 µM in the experiment on NCI-H460 lung; greater than 100 µM with 786-0 renal; greater than 100 µM in the experiment on SK-OV-3 ovarian; greater than 100 µM in the experiment with OVCAR-5 ovarian; greater than 100 µM in the experiment with HCC-2998 colon. Also, the TGI was greater than 100 µM in the experiment on CAKI-1 renal and 33.7 µM in the experiment with U251 CNS.

`O=C(C#Cc1ccccc1)N1c2ccccc2CC1c1c[nH]c2ccccc12` (stereo not given): the TGI in the experiment on IGROV1 ovarian amounted to 25.3 µM; in the experiment with NCI-H460 lung, 42.3 µM; in the experiment with 786-0 renal, 34.8 µM; in the experiment on SK-OV-3 ovarian, 51 µM; in the experiment with OVCAR-5 ovarian it was 64.4 µM; with M14 melanoma, 28.8 µM. In addition, the TGI in the experiment with HCC-2998 colon worked out at 31.3 µM; with CAKI-1 renal, 33.2 µM; in the experiment with U251 CNS it was 35.8 µM.

Turning to `N/C(=N\NS(=O)(=O)c1ccccc1)Oc1ccc(Br)cc1Br`, the TGI in the experiment with IGROV1 ovarian, with NCI-H460 lung, in the experiment with 786-0 renal, in the experiment with SK-OV-3 ovarian, in the experiment with OVCAR-5 ovarian and with M14 melanoma was greater than 100 µM each time. Moreover, the TGI with HCC-2998 colon, with CAKI-1 renal and in the experiment with U251 CNS was greater than 100 µM in each case.

With `CC1(c2cc3c(cc2Br)OCO3)SCCCS1`, the TGI in the experiment on IGROV1 ovarian, in the experiment on NCI-H460 lung, with 786-0 renal, in the experiment with SK-OV-3 ovarian, in the experiment on OVCAR-5 ovarian and in the experiment with M14 melanoma was greater than 100 µM in each case. For the same compound, the figures for the TGI in the experiment with HCC-2998 colon and with U251 CNS were 77.3 µM and greater than 100 µM, respectively.
